From patent publication US11547703B2, “Substituted fused heteroaromatic tricyclic compounds as kinase inhibitors and the use thereof” (IMPACT THERAPEUTICS (SHANGHAI), INC, priority 2017, dated 2023) come the findings set out here.

The target of one test is ATM enzyme (human) (Homo sapiens, UniProt Q13315). In words: ATM kinase assay (HTRF, phosphorylation of GST-cMyc-p53). Particulars: for inhibition at 1 µM: detected concentration 1 μm. It counts as biochemical. The protocol: ATM enzyme (human) was added to the reaction solution containing 30 nM GST-cMyc-p53 and 10 μM Mg/ATP, and then 50 times the concentration of the tested compound (or reference compound AZD0156) dissolved in 100% DMSO was added to the final concentration of 10 μM/1 μM/0.1 μM/0.01 μM. The reaction was initiated by the addition of a Mg/ATP mixture and incubation for 30 minutes at room temperature, the reaction was quenched by the addition of a stop solution containing EDTA. Finally, the detection buffer containing the d2-labeled anti-GST monoclonal antibody and the europium-labeled anti-phospho p53 (Ser15) antibody was added. The plate was then read in time resolved fluorescence mode and the homogeneous time resolved fluorescence (HTRF) signal was determined according to the equation: HTRF=10000×(Em665nm/Em620nm). Each compound sample was repeated in duplicate. The negative control contained all components except the ATM enzyme, and the positive control contained all components. All reactions were quenched by adding EDTA.
The compounds were serially diluted to 10 concentrations with 100% DMSO at the ratio of 1:3 and 1:10 (the last concentration was negative control of DMSO), then added to the ATM buffer and diluted to a final concentration of 10, 3, 1, 0.3, 0.1, 0.03, 0.01, 0.003, 0.001 and 0 μM, respectively. ATM kinase inhibition was detected by using the method described above. The curve equation for calculating IC50 value is as follows: […]
wherein, C is the concentration of compound and D is the slope factor. Table 2 summarizes the IC50 values of compounds inhibiting ATM kinase.
A general note: TR-FRET usually uses a lanthanide donor and a delayed reading to cut background.

Test [1] deals with human breast cancer cell MDA-MB-468. In words: MTT assay, growth of MDA-MB-468 cells. The class given is cell-based. Particulars: Homo sapiens, MDA-MB-468, 168 h; single agent, 7 days, MTT. The protocol:
(§1) MDA-MB-468 cells were digested by trypsinase, centrifuged at 800 rpm for 5 minutes, the supernatant was discarded, resuspended with fresh medium (RPMI 1640 medium+10% FBS) and counted. The cells were seeded into 96-well cell culture plate with appropriate cell density and incubated overnight in a 37° C. 5% CO2 incubator. The stock solutions of the tested compound and the reference compound AZD0156 were serially diluted to 8 concentrations by DMSO at the ratios of 1:3 and 1:10, respectively: the last concentration was negative control of DMSO (0 μM, the final concentration of DMSO was 1%). 5 μL of each concentration was added to 120 μL of medium (25 times diluted) and mixed by shaking. The overnight cells were taken and the culture medium was removed, 195 μL of fresh medium (PRMI 1640+5% FBS) was added to each well, and 5 μL of diluted medium containing the corresponding concentration of the tested sample was added respectively, and the culture plate was then placed in the 5% CO2 cell culture incubator at 37° C. for 7 days (On the fourth day, the medium containing drugs was removed and fresh medium containing drugs was added for continuous cultivation). After removing the original solution, 100 μL of fresh serum-free DMEM medium containing MTT (0.5 mg/mL) was added to each well, the culture was continued. After 4 hours, the original solution was removed, 100 μL of DMSO was added into each well, the 96-well plates were shaken away from light for 10 minutes and placed in a multi-function reader to read the absorbance at the wavelength of 552/630/690 nm. GraphPad Prism 6.0 was used to analyze the data. The inhibitory activity of compounds on cell proliferation was plotted based on cell viability and compound concentration. The IC50 value was fitted by a sigmoidal dose response curve equation Y=100/(1+10^(Log C−Log IC50)), where C was the concentration of compound.
A general note: Tetrazolium dyes change colour on reduction, which living cells bring about.

In test [2] the test system is human colon cancer cell SW620. In words: MTT assay, growth of SW620 cells, compounds combined with CPT-11. It counts as cell-based. The following applies: Homo sapiens, SW-620, 120 h; 205 nM CPT-11, 5 days, MTT. The protocol: as §1, with “SW620” for “MDA-MB-468”, “respectively, and” for “respectively:”, “containing 205 nM CPT-11” for “(PRMI 1640+5% FBS)”, “5 days.” for “7 days (On the fourth day, the medium containing drugs was removed and fresh medium containing drugs was added for continuous cultivation).”

Sequence of ATM enzyme (human) (Q13315 whole entry): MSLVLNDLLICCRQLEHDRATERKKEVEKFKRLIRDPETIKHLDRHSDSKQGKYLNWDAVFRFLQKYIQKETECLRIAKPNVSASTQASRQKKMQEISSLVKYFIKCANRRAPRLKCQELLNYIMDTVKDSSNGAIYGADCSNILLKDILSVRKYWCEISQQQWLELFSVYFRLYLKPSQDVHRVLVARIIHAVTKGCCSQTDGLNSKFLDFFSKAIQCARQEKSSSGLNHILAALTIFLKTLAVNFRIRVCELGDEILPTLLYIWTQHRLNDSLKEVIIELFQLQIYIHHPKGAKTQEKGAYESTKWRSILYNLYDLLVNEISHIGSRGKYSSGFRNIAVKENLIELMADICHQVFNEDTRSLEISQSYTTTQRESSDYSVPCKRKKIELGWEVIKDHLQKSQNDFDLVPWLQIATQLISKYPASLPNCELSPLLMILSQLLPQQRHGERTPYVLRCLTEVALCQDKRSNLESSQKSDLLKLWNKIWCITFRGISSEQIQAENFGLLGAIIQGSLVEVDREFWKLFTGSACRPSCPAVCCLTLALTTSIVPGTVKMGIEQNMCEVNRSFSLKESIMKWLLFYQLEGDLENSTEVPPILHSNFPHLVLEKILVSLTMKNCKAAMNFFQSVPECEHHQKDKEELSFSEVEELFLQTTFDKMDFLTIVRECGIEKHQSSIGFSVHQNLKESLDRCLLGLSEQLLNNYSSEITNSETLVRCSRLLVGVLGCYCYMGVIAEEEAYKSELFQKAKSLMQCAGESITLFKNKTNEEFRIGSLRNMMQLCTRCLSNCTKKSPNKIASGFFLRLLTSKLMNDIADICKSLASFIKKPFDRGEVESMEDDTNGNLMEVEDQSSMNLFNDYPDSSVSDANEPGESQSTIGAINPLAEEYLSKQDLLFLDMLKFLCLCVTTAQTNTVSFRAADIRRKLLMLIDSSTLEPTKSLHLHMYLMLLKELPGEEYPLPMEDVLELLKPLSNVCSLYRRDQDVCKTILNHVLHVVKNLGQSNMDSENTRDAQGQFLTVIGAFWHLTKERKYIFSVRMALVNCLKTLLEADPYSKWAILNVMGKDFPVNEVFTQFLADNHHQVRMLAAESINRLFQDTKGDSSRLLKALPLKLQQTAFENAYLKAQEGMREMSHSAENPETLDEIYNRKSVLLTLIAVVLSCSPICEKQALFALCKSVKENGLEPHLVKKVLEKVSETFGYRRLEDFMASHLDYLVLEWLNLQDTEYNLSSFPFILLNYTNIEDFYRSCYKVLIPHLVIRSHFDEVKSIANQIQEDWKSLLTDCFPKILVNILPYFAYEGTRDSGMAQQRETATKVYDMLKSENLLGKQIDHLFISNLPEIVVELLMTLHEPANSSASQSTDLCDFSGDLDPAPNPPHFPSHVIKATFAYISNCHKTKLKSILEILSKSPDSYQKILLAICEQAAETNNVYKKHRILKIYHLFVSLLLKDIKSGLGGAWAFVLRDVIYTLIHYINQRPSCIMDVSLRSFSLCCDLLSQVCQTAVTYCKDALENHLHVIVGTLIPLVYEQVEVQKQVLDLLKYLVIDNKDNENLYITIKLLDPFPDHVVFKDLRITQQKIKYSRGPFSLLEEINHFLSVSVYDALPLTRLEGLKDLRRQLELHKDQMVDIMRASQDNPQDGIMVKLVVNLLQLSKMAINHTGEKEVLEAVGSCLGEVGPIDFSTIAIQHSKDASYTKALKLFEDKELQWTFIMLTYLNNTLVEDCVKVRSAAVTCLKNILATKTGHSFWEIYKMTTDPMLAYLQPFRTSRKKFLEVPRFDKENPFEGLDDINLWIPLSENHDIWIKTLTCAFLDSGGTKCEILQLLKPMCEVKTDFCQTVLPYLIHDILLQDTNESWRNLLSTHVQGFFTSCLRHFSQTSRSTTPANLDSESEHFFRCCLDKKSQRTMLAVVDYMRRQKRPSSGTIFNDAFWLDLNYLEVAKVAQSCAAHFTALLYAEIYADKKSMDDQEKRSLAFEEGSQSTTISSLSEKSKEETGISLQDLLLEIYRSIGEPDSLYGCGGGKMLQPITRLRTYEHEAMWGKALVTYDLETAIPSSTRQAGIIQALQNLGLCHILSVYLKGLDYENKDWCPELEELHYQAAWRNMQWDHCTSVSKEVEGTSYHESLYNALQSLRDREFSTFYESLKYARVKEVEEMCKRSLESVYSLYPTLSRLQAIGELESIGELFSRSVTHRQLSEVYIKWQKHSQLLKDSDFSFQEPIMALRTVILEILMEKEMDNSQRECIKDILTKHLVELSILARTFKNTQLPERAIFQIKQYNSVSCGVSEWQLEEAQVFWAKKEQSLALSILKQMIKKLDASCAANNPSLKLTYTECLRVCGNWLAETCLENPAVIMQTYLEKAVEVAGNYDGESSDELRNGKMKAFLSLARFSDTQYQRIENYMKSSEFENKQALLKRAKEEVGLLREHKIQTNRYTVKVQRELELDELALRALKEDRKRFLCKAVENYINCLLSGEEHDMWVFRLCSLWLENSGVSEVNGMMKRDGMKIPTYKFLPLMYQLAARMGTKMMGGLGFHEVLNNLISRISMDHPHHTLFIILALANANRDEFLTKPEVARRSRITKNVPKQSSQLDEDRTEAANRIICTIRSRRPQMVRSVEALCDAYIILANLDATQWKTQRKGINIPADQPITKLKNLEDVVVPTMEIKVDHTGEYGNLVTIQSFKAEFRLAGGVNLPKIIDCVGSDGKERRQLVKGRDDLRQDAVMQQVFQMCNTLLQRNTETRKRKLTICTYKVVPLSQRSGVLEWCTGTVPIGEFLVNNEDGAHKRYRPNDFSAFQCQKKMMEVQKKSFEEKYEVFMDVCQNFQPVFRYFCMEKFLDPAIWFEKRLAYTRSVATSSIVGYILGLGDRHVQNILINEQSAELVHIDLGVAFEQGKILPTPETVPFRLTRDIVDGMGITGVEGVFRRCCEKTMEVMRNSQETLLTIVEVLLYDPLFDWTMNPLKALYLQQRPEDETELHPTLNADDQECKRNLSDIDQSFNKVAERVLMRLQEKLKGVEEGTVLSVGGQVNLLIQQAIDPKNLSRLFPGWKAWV

Take `CN(C)CCCOc1ccc(-c2ccc3nc4cccc(C5=CCOCC5)c4n3c2)cn1` [Example 1, N,N-dimethyl-3-((5-(9-(3,6-dihydro-2H-pyran-4-yl)benzo[4,5]imidazo[1,2-a]pyridin-2-yl)pyridin-2-yl)oxy)propan-1-amine]: the IC50 (in general, the concentration that gives 50% inhibition) at ATM enzyme (human) (10 concentrations, 10 to 0.001 μM, read-out: IC50 (nM), in vitro inhibitory effect on ATM kinase) stood at 239 nM; in test [1] it was 2.8 µM; in test [2], 1.34 µM. In addition, the inhibition (commonly how much of the control response was suppressed) at 10 µM against ATM enzyme (human) (0.5 h, detected concentration 10 μm) is 100%. In addition, at ATM enzyme (human) (ATM kinase (human) assay), the “effect on ATM kinase (in words)” value is “good effect”.
For the compound `C[C@@H]1CN(c2cccc3nc4ccc(-c5ccc(OCCCN(C)C)nc5)cn4c23)C[C@H](C)N1C` [Example 8, N,N-dimethyl-3-((5-(9-((3S,5R)-3,4,5-trimethylpiperazin-1-yl)benzo[4,5]imidazo[1,2-a]pyridin-2-yl)pyridin-2-yl)oxy)propan-1-amine], testing at 1 µM against ATM enzyme (human) (0.5 h) gave an inhibition of 99%. Further, the IC50 in test [1] came to 0.0251 µM; in test [2], 0.434 µM.
Taken in the same sequence, the figures for `CN(C)CCCOc1ccc(-c2ccc3nc4cccc(-n5ccnc5)c4n3c2)cn1` [Example 9, N,N-dimethyl-3-((5-(9-(1H-imidazol-1-yl)benzo[4,5]imidazo[1,2-a]pyridin-2-yl)pyridin-2-yl)oxy) propan-1-amine] were 60%, 3.66 µM and 9.31 µM.
At ATM enzyme (human) (0.5 h), `CN(C)CCCOc1ccc(-c2ccc3nc4cccc(CN5CCOCC5)c4n3c2)cn1` [Example 10, N,N-dimethyl-3-((5-(9-(morpholinomethyl)benzo[4,5]imidazo[1,2-a]pyridin-2-yl)pyridin-2-yl)oxy)propan-1-amine] showed an inhibition at 1 µM of 77%. The concentration for half-maximal inhibition (IC50) in test [1] and in test [2] was above 10 µM each time.
With `CN(C)CCCOc1ccc(-c2ccc3nc4cccc(OC5CCN(C)CC5)c4n3c2)cn1` [Example 12, N,N-dimethyl-3-((5-(9-((1-methylpiperidin-4-yl)oxy)benzo[4,5]imidazo[1,2-a]pyridin-2-yl)pyridin-2-yl)oxy)propan-1-amine], the inhibition at 1 µM against ATM enzyme (human) (0.5 h) turned out to be 88%. In addition, the IC50 in test [1] was found to be 0.703 µM; in test [2], 0.528 µM.
In turn, `CN(C)CCCOc1ccc(-c2ccc3nc4cccc(NC5CCN(C)CC5)c4n3c2)cn1` [Example 15, N,N-dimethyl-3-((5-(9-(1-methylpiperidin-4-ylamino)benzo[4,5]imidazo[1,2-a]pyridin-2-yl)pyridin-2-yl)oxy)propan-1-amine] gave an inhibition at 1 µM on ATM enzyme (human) (0.5 h) of 39%. Besides, the IC50 is above 10 µM in test [1] and 2.42 µM in test [2].
On to `CN1CCN(c2ccc(-c3cccc4nc5ccc(N6CCOCC6)cc5n34)cn2)CC1` [Example 16, 1-(6-(4-methylpiperazin-1-yl)pyridin-3-yl)-8-morpholinobenzo[4,5]imidazo[1,2-a]pyridine], for which the inhibition at 1 µM on ATM enzyme (human) (0.5 h) amounted to 53%. Moreover, the half-inhibitory concentration (IC50) in test [1] and in test [2] was above 10 µM in each case.
`C[C@@H]1CN(c2ccc(-c3cccc4nc5ccc(N6CCOCC6)cc5n34)cn2)C[C@H](C)N1C` [Example 17, 1-(6-((3S,5R)-3,4,5-trimethylpiperazin-1-yl)pyridin-3-yl)-8-morpholinobenzo[4,5]imidazo[1,2-a]pyridine] came in with an inhibition at 1 µM against ATM enzyme (human) (0.5 h) of 37%. Further, the IC50 in test [1] amounted to 2.62 µM; in test [2], 3.25 µM.
At ATM enzyme (human) (0.5 h), `CN(C)C1CCN(c2ccc(-c3ccc4nc5cccc(N6CCOCC6)c5n4c3)cn2)CC1` [Example 42, N,N-dimethyl-1-(5-(9-morpholinobenzo[4,5]imidazo[1,2-a]pyridin-2-yl)pyridin-2-yl)piperidin-4-amine] returned an inhibition at 1 µM of 88%. In addition, the IC50 in test [1] came out at 2.4 µM; in test [2], 2.1 µM.
The like results for `CN1CCN(c2cccc3nc4ccc(-c5ccc(N6CCC(N(C)C)CC6)c(C(F)(F)F)c5)cn4c23)CC1` [Example 43, N,N-dimethyl-1-(2-(trifluoromethyl)-4-(9-(4-methylpiperazin-1-yl)benzo[4,5]imidazo[1,2-a]pyridin-2-yl)-phenyl)piperidin-4-amine] were, in that order, 99%, 0.542 µM and 1.05 µM.
The like results for `CN(C)CCCOc1ccc(-c2ccc3nc4cccc(N5CCN(C)CC5)c4n3c2)cc1C(F)(F)F` [Example 44, N,N-dimethyl-3-(2-(trifluoromethyl)-4-(9-(4-methylpiperazin-1-yl)benzo[4,5]imidazo[1,2-a]pyridin-2-yl)phenoxy)propan-1-amine] were, in that order, 97%, above 100 µM and above 0.5 µM.
In the case of `C[C@@H]1CN(c2cccc3nc4ccc(-c5ccc(N6CCC(N(C)C)CC6)cc5)cn4c23)C[C@H](C)N1C` [Example 45, N,N-dimethyl-1-(4-(9-((3S,5R)-3,4,5-trimethylpiperazin-1-yl)benzo[4,5]imidazo[1,2-a]pyridin-2-yl)phenyl)piperidin-4-amine], at 1 µM the inhibition at ATM enzyme (human) (0.5 h) was 100%. The figures for the IC50 in test [1] and in test [2] were 0.322 µM and above 0.5 µM, respectively.
Taken in the same sequence, the figures for `C[C@@H]1CN(c2cccc3nc4ccc(-c5ccc(N6CCC(N(C)C)CC6)c(F)c5)cn4c23)C[C@H](C)N1C` [Example 46, N,N-dimethyl-1-(2-fluoro-4-(9-((3S,5R)-3,4,5-trimethylpiperazin-1-yl)benzo[4,5]imidazo[1,2-a]pyridin-2-yl)phenyl)piperidin-4-amine] were 100%, 0.055 µM and 0.152 µM.
Compound `C[C@@H]1CN(c2cccc3nc4ccc(-c5ccc(N6CCC(N(C)C)CC6)c(Cl)c5)cn4c23)C[C@H](C)N1C` [Example 47, N,N-dimethyl-1-(2-chloro-4-(9-((3S,5R)-3,4,5-trimethylpiperazin-1-yl)benzo[4,5]imidazo[1,2-a]pyridin-2-yl)phenyl)piperidin-4-amine] came in with an inhibition at 1 µM against ATM enzyme (human) (0.5 h) of 100%. Also, the IC50 in test [1] worked out at 0.0605 µM; in test [2], 0.166 µM.
`C[C@@H]1CN(c2cccc3nc4ccc(-c5ccc(N6CCC(N(C)C)CC6)c(C(F)(F)F)c5)cn4c23)C[C@H](C)N1C` [Example 48, N,N-dimethyl-1-(2-(trifluoromethyl)-4-(9-((3S,5R)-3,4,5-trimethylpiperazin-1-yl)benzo[4,5]imidazo[1,2-a]pyridin-2-yl)phenyl)piperidin-4-amine] registered an inhibition at 1 µM at ATM enzyme (human) (0.5 h) of 100%. For the same compound, the IC50 in test [1] and in test [2] was above 1 µM each time.
